Results taken from US6706740B2, “Fungicidal heterocyclic aromatic amides and their compositions, methods of use and preparation” (Dow AgroSciences LLC, priority 1999, dated 2004).
Like-named read-outs stand apart in the source and are kept apart here.

What was measured:
Erysiphe graminis—ERYSGT = assay: Powdery Mildew of Wheat, in vivo whole plant, 24 Hour Protectant; settings: Erysiphe, control of fungal infection vs untreated plants, read-out: ERYSGT in vivo 1 Day Protectant
[1] = tested on: Mycosphaerella graminicola (Septoria tritici—SEPTTR); assay: In vitro fungal growth inhibition, Mycosphaerella graminicola (SEPTTR); assay type: cell-based; settings: Zymoseptoria tritici, read-out: SEPTTR in vitro Growth Inhibition
Septoria tritici—SEPTTR = assay: Leaf Blotch of Wheat, in vivo whole plant, 24 Hour Protectant; settings: Zymoseptoria tritici, 24 h, control of fungal infection vs untreated plants, read-out: SEPTTR in vivo 1 Day Protectant
Ustilago maydis (USTIMA) = assay: microbe, parasite or virus in culture; assay type: cell-based; settings: Mycosarcoma maydis, read-out: USTIMA in vitro Growth Inhibition
[2] = tested on: Phytophthora infestans (PHYTIN); assay: microbe, parasite or virus in culture; assay type: cell-based; settings: Phytophthora infestans, read-out: PHYTIN in vitro Growth Inhibition
[3] = tested on: Leptosphaeria nodorum—LEPTNO; assay: Glume Blotch of Wheat, in vivo whole plant, 24 Hour Protectant; settings: Leptosphaeria, control of fungal infection vs untreated plants, read-out: LEPTNO in vivo 1 Day Protectant
[4] = tested on: Rhizoctonia solani (RHIZSO); assay: microbe, parasite or virus in culture; assay type: cell-based; settings: Rhizoctonia solani, read-out: RHIZSO in vitro Growth Inhibition
[5] = tested on: Phytophthora infestans—PHYTIN; assay: whole plant or invertebrate; assay type: in vivo; settings: Phytophthora, in Solanum lycopersicum, 24 h, read-out: PHYTIN in vivo 1 Day Protectant
[6] = tested on: Puccinia recondita—PUCCRT; assay: Brown Rust of Wheat, in vivo whole plant, 24 Hour Protectant; settings: control of fungal infection vs untreated plants; for pest or weed control at 100 ppm: Puccinia, read-out: PUCCRT in vivo 1 Day Protectant
[7] = tested on: Stagonospora nodorum (Leptosphaeria nodorum—LEPTNO); assay: In vitro fungal growth inhibition, Stagonospora nodorum (LEPTNO); assay type: cell-based; settings: Leptosphaeria, read-out: LEPTNO in vitro Growth Inhibition
[8] = tested on: Magnaporthe grisea (Pyricularia oryzae—PYRIOR); assay: microbe, parasite or virus in culture; assay type: cell-based; settings: Pyricularia oryzae, read-out: PYRIOR in vitro Growth Inhibition
[9] = 100 ppm spray, wheat, 24 hour protectant
[10] = 100 ppm spray, 24 hour protectant, wheat
[11] = wheat plants sprayed at 100 ppm, inoculated after 24 hours

Row | SMILES | melting point [°C] | inhibition at 25 ppm ([1]; 25 ppm in growth medium) [%] | inhibition at 25 ppm (Ustilago maydis (USTIMA)) [%] | inhibition at 25 ppm [2] [%] | inhibition at 25 ppm [4] [%] | pest or weed control at 100 ppm [5] [%] | inhibition at 25 ppm ([7]; 25 ppm in growth medium) [%] | inhibition at 25 ppm [8] [%] | pest or weed control at 100 ppm (Erysiphe graminis—ERYSGT; [10]) [%] | pest or weed control at 100 ppm (Septoria tritici—SEPTTR; [10]) [%] | pest or weed control at 100 ppm [3, 10] [%] | further results
1 | COc1ccnc(C(=O)Nc2ccc(Nc3cccc(C(F)(F)F)c3)cc2)c1O [Compound 410] | 204 to 205 | < 80 | < 80 | < 80 | < 80 | < 25 | < 80 | < 80 | – | – | – | pest or weed control at 100 ppm (Erysiphe graminis—ERYSGT; [9]): < 25%; pest or weed control at 100 ppm (Septoria tritici—SEPTTR; [9]): < 25%; pest or weed control at 100 ppm [3, 9]: 25 to 74%; pest or weed control at 100 ppm [6, 9]: < 25%
2 | COc1ccnc(C(=O)NC2CC3OC2C(C)C(OC(=O)C(C)C)C3C)c1O (stereo not drawn) [Compound 320] | 108.5 to 109.5 | < 80 | < 80 | < 80 | < 80 | < 25 | < 80 | < 80 | < 25 | 25 to 74 | 25 to 74 | pest or weed control at 100 ppm [6, 10]: < 25%
3 | COc1ccnc(C(=O)N[C@H]2CO[C@](C)(C(C)CC3=C(C)CCCC3(C)C)OC2)c1O (stereo partly drawn) [Compound 319] | 139 to 140 | < 80 | < 80 | < 80 | < 80 | < 25 | < 80 | < 80 | 25 to 74 | 25 to 74 | < 25 | PUCCRT in vivo 1 Day Protectant [6, 10]: + +
4 | COc1ccnc(C(=O)NC2CCc3ccccc3C2=O)c1O (stereo not drawn) [Compound 285] | 174 to 179 | < 80 | < 80 | < 80 | > 80 | < 25 | < 80 | < 80 | < 25 | 25 to 74 | 25 to 74 | pest or weed control at 100 ppm [6, 10]: < 25%
5 | CSc1nnc(C(=O)NC2CC(C)(C)CC(C)(C)C2)c(O)n1 [Compound 545] | 265 to 268 | – | < 80 | > 80 | < 80 | 25 to 74 | – | < 80 | – | – | – | pest or weed control at 100 ppm (Erysiphe graminis—ERYSGT; [11]): < 25%; inhibition at 25 ppm ([1]; 25 ppm in the growth medium): < 80%; pest or weed control at 100 ppm (Septoria tritici—SEPTTR; [11]): 25 to 74%; pest or weed control at 100 ppm [3, 11]: 25 to 74%; pest or weed control at 100 ppm [6, 11]: 25 to 74%; inhibition at 25 ppm ([7]; 25 ppm in the growth medium): < 80%
6 | CC(C)C(=O)O[C@H]1[C@H](C)OC(=O)[C@@H](NC(=O)c2conc2O)COC(=O)[C@@H]1Cc1ccccc1 [Compound 561] | 115 to 117 | – | < 80 | < 80 | < 80 | < 25 | – | < 80 | – | – | – | pest or weed control at 100 ppm (Erysiphe graminis—ERYSGT; [11]): 25 to 74%; inhibition at 25 ppm ([1]; 25 ppm in the growth medium): < 80%; pest or weed control at 100 ppm (Septoria tritici—SEPTTR; [11]): 25 to 74%; pest or weed control at 100 ppm [3, 11]: < 25%; pest or weed control at 100 ppm [6, 11]: 25 to 74%; inhibition at 25 ppm ([7]; 25 ppm in the growth medium): < 80%
7 | COCc1cc(Oc2ccc(C(F)(F)F)cc2)ccc1NC(=O)c1nccc(OC)c1O [Compound 426] | 125 to 127 | > 80 | > 80 | > 80 | > 80 | 25 to 74 | > 80 | > 80 | – | – | – | pest or weed control at 100 ppm (Erysiphe graminis—ERYSGT; [9]): 25 to 74%; pest or weed control at 100 ppm (Septoria tritici—SEPTTR; [9]): 25 to 74%; pest or weed control at 100 ppm [3, 9]: < 25%; pest or weed control at 100 ppm [6, 9]: 25 to 74%
